# Results taken from patent US7566712B2, “Biaryl piperazinyl-pyridine analogues” (Neurogen Corporation, priority 2003, dated 2009).
# pIC50: −log10 of the molar value.
# Molecular target: T1, human capsaicin receptor (Homo sapiens, UniProt Q8NER1)
# T1 construct: pBK-CMV expression construct encoding the full length human capsaicin receptor; expressed in transfected cells
# Assay: Calcium mobilization assay, determination of antagonist activity (Example 6)
# Assay type: cell-based
# Details: Table II; IC50 determined as described in Example 6
# Protocol: A cDNA encoding full length human capsaicin receptor (SEQ ID NO: 1, 2 or 3 of U.S. Pat. No. 6,482,611) was subcloned in the plasmid pBK-CMV (Stratagene, La Jolla, Calif.) for recombinant expression in mammalian cells.
# Human embryonic kidney (HEK293) cells were transfected with the pBK-CMV expression construct encoding the full length human capsaicin receptor using standard methods. The transfected cells were selected for two weeks in media containing G418 (400 μg/ml) to obtain a pool of stably transfected cells. Independent clones were isolated from this pool by limiting dilution to obtain clonal stable cell lines for use in subsequent experiments.
# This Example illustrates representative calcium mobilization assays for use in evaluating test compounds for agonist and antagonist activity.
# Cells transfected with expression plasmids (as described in Example 4) and thereby expressing human capsaicin receptor are seeded and grown to 70-90% confluency in FALCON black-walled, clear-bottomed 96-well plates (#3904, BECTON-DICKINSON, Franklin Lakes, N.J.). The culture medium is emptied from the 96 well plates and FLUO-3 AM calcium sensitive dye (Molecular Probes, Eugene, Oreg.) is added to each well (dye solution: 1 mg FLUO-3 AM, 440 μL DMSO and 440 pi 20% pluronic acid in DMSO, diluted 1:250 in Krebs-Ringer HEPES (KRH) buffer (25 mM HEPES, 5 mM KCl, 0.96 mM NaH2PO4, 1 mM MgSO4, 2 mM CaCl2, 5 mM glucose, 1 mM probenecid, pH 7.4), 50 μl diluted solution per well). Plates are covered with aluminum foil and incubated at 37° C. for 1-2 hours in an environment containing 5% CO2. After the incubation, the dye is emptied from the plates, and the cells are washed once with KRH buffer, and resuspended in KRH buffer.
# To measure the ability of a test compound to agonize or antagonize a calcium mobilization response in cells expressing capsaicin receptors to capsaicin or other vanilloid agonist, the EC50 of the agonist capsaicin is first determined. An additional 20 μl of KRH buffer and 1 μl DMSO is added to each well of cells, prepared as described above. 100 μl capsaicin in KRH buffer is automatically transferred by the FLIPR instrument to each well. Capsaicin-induced calcium mobilization is monitored using either FLUOROSKAN ASCENT (Labsystems; Franklin, Mass.) or FLIPR (fluorometric imaging plate reader system; Molecular Devices, Sunnyvale, Calif.) instruments. Data obtained between 30 and 60 seconds after agonist application are used to generate an 8-point concentration response curve, with final capsaicin concentrations of 1 nM to 3 μM. KALEIDAGRAPH software (Synergy Software, Reading, Pa.) is used to fit the data to the equation: y=a*(1/(1+(b/x)^c)) to determine the 50% excitatory concentration (EC50) for the response. In this equation, y is the maximum fluorescence signal, x is the concentration of the agonist or antagonist (in this case, capsaicin), a is the Emax, b corresponds to the EC50 value and c is the Hill coefficient. Determination of Agonist Activity
# Test compounds are dissolved in DMSO, diluted in 20 μl KRH buffer so that the final concentration of test compounds in the assay well is between 1 μM and 5 μM, and added to cells prepared as described above. The 96 well plates containing prepared cells and test compounds are incubated in the dark, at room temperature for 0.5 to 6 hours. It is important that the incubation not continue beyond 6 hours. Just prior to determining the fluorescence response, 100 pi capsaicin in KRH buffer at twice the EC50 concentration determined as described above is automatically added by the FLIPR instrument to each well of the 96 well plate for a final sample volume of 200 μl and a final capsaicin concentration equal to the EC50. The final concentration of test compounds in the assay wells is between 1 μM and 5 μM. […]
# T1 sequence (Q8NER1 whole entry): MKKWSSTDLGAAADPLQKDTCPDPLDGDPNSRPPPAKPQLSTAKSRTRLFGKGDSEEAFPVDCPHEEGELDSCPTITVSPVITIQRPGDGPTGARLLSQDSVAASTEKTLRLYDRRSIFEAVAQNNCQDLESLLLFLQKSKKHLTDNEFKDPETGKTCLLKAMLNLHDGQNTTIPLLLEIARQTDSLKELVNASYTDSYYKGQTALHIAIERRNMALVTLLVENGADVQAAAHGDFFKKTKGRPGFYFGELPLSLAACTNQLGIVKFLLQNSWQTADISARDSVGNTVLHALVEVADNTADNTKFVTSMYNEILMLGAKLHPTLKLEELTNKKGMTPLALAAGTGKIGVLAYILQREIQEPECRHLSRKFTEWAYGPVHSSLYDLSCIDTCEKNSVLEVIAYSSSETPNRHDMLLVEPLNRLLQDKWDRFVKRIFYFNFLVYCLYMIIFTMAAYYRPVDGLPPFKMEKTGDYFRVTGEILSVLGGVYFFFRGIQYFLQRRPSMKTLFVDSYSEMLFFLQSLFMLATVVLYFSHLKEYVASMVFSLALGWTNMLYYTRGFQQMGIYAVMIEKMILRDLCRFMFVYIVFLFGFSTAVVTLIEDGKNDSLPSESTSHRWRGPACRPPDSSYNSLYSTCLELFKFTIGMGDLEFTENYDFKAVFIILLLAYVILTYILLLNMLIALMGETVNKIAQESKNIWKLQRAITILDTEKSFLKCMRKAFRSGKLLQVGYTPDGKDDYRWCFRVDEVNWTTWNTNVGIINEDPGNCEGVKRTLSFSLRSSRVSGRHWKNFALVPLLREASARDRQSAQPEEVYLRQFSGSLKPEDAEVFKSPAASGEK
row,SMILES,pIC50
1,"C=CCN1CCN(c2nc(-c3ccc(Cl)cc3)nc(N3CCN(c4ncccc4C(F)(F)F)CC3)n2)CC1 [Example 445, 2-(4-allylpiperazin-1-yl)-4-(4-chlorophenyl)-6-{4-[3-(trifluoromethyl)pyridin-2-yl]piperazin-1-yl}-1,3,5-triazine]",≥ 6.00
2,"C=CCN1CCN(c2nc(-c3ccc(F)cc3)nc(N3CCN(c4ncccc4C(F)(F)F)CC3)n2)CC1 [Example 446, 2-(4-allylpiperazin-1-yl)-4-(4-fluorophenyl)-6-{4-[3-(trifluoromethyl)pyridin-2-yl]piperazin-1-yl}-1,3,5-triazine]",≥ 6.00
3,"C=CCN1CCN(c2nc(-c3cccc(F)c3)nc(N3CCN(c4ncccc4C(F)(F)F)CC3)n2)CC1 [Example 448, 2-(4-allylpiperazin-1-yl)-4-(3-fluorophenyl)-6-{4-[3-(trifluoromethyl)pyridin-2-yl]piperazin-1-yl}-1,3,5-triazine]",≥ 6.00
4,"C=CCN1CCN(c2nc(-c3ccc(F)c(C)c3)nc(N3CCN(c4ncccc4C(F)(F)F)CC3)n2)CC1 [Example 450, 2-(4-allylpiperazin-1-yl)-4-(4-fluoro-3-methylphenyl)-6-{4-[3-(trifluoromethyl)pyridin-2-yl]piperazin-1-yl}-1,3,5-triazine]",≥ 6.00
5,"C=CCN1CCN(c2nc(-c3cccc(C)c3)nc(N3CCN(c4ncccc4C(F)(F)F)CC3)n2)CC1 [Example 453, 2-(4-allylpiperazin-1-yl)-4-(3-methylphenyl)-6-{4-[3-(trifluoromethyl)pyridin-2-yl]piperazin-1-yl}-1,3,5-triazine]",≥ 6.00
6,"C[C@@H]1CN(c2ncccc2Cl)CCN1c1cc(-c2ccc(Cl)cc2)nc(N2CCOCC2)n1 [Example 485, 4-{4-(4-chlorophenyl)-6-[(2R)-4-(3-chloropyridin-2-yl)-2-methylpiperazin-1-yl]pyrimidin-2-yl}morpholine]",≥ 6.00
7,"C[C@@H]1CN(c2ncccc2C#N)CCN1c1cc(-c2ccc3ccccc3c2)nc(N2CCOCC2)n1 [Example 489, 2-{(3R)-3-methyl-4-[2-morpholin-4-yl-6-(2-naphthyl)pyrimidin-4-yl]piperazin-1-yl}nicotinonitrile]",≥ 6.00
8,"Cc1cccnc1N1CCN(c2cc(-c3ccc4ccccc4c3)nc(N3CCOCC3)n2)[C@H](C)C1 [Example 490, 4-[4-[(2R)-2-methyl-4-(3-methylpyridin-2-yl)piperazin-1-yl]-6-(2-naphthyl)pyrimidin-2-yl]morpholine]",≥ 6.00
9,"C[C@@H]1CN(c2ncccc2C(F)(F)F)CCN1c1cc(-c2ccc3ccccc3c2)nc(N2CCOCC2)n1 [Example 491, 4-[4-{(2R)-2-methyl-4-[3-(trifluoromethyl)pyridin-2-yl]piperazin-1-yl}-6-(2-naphthyl)pyrimidin-2-yl]morpholine]",≥ 6.00
10,"Cc1ccc(-c2cc(N3CCN(c4ncccc4C#N)C[C@H]3C)nc(N3CCOCC3)n2)cc1F [Example 493, 2-{(3R)-4-[6-(3-fluoro-4-methylphenyl)-2-morpholin-4-ylpyrimidin-4-yl]-3-methylpiperazin-1-yl}nicotinonitrile]",≥ 6.00

# Continued, values first:
row,pIC50,SMILES
1,≥ 6.00,"C=CCN1CCN(c2nc(-c3cccc(Cl)c3)nc(N3CCN(c4ncccc4C(F)(F)F)CC3)n2)CC1 [Example 441, 2-(4-allylpiperazin-1-yl)-4-(3-chlorophenyl)-6-{4-[3-(trifluoromethyl)pyridin-2-yl]piperazin-1-yl}-1,3,5-triazine]"
2,≥ 6.00,"CCCCN1CCN(c2nc(-c3cccc(Cl)c3)nc(N3CCN(c4ncccc4C(F)(F)F)CC3)n2)CC1 [Example 444, 2-(4-butylpiperazin-1-yl)-4-(3-chlorophenyl)-6-{4-[3-(trifluoromethyl)pyridin-2-yl]piperazin-1-yl}-1,3,5-triazine]"
3,≥ 6.00,"CCCCN1CCN(c2nc(-c3ccc(F)c(C)c3)nc(N3CCN(c4ncccc4C(F)(F)F)CC3)n2)CC1 [Example 452, 2-(4-butylpiperazin-1-yl)-4-(4-fluoro-3-methylphenyl)-6-{4-[3-(trifluoromethyl)pyridin-2-yl]piperazin-1-yl}-1,3,5-triazine]"
4,≥ 6.00,"C[C@@H]1CN(c2ncccc2C(F)(F)F)CCN1c1cc(-c2ccccc2)nc(N2CCOCC2)n1 [Example 478, 4-(4-{(2R)-2-methyl-4-[3-(trifluoromethyl)pyridin-2-yl]piperazin-1-yl}-6-phenylpyrimidin-2-yl)morpholine]"
5,≥ 6.00,"C[C@@H]1CN(c2ncccc2Cl)CCN1c1cc(-c2ccccc2)nc(N2CCOCC2)n1 [Example 479, 4-{4-[(2R)-4-(3-chloropyridin-2-yl)-2-methylpiperazin-1-yl]-6-phenylpyrimidin-2-yl}morpholine]"
6,≥ 6.00,"Cc1cccnc1N1CCN(c2cc(-c3cccc(Cl)c3)nc(N3CCOCC3)n2)[C@H](C)C1 [Example 480, 4-{4-(3-chlorophenyl)-6-[(2R)-2-methyl-4-(3-methylpyridin-2-yl)piperazin-1-yl]pyrimidin-2-yl}morpholine]"
7,≥ 6.00,"C[C@@H]1CN(c2ncccc2Cl)CCN1c1cc(-c2cccc(Cl)c2)nc(N2CCOCC2)n1 [Example 481, 4-{4-(3-chlorophenyl)-6-[(2R)-4-(3-chloropyridin-2-yl)-2-methylpiperazin-1-yl]pyrimidin-2-yl}morpholine]"
8,≥ 6.00,"C[C@@H]1CN(c2ncccc2C#N)CCN1c1cc(-c2ccc(Cl)cc2)nc(N2CCOCC2)n1 [Example 482, 2-{(3R)-4-[6-(4-chlorophenyl)-2-morpholin-4-ylpyrimidin-4-yl]-3-methylpiperazin-1-yl}nicotinonitrile]"
9,≥ 6.00,"Cc1cccnc1N1CCN(c2cc(-c3ccc(Cl)cc3)nc(N3CCOCC3)n2)[C@H](C)C1 [Example 483, 4-{4-(4-chlorophenyl)-6-[(2R)-2-methyl-4-(3-methylpyridin-2-yl)piperazin-1-yl]pyrimidin-2-yl}morpholine]"
10,≥ 6.00,"C[C@@H]1CN(c2ncccc2C(F)(F)F)CCN1c1cc(-c2ccc(Cl)cc2)nc(N2CCOCC2)n1 [Example 484, 4-(4-(4-chlorophenyl)-6-{(2R)-2-methyl-4-[3-(trifluoromethyl)pyridin-2-yl]piperazin-1-yl}pyrimidin-2-yl)morpholine]"
11,≥ 6.00,"C[C@@H]1CN(c2ncccc2C#N)CCN1c1cc(-c2ccc(F)cc2)nc(N2CCOCC2)n1 [Example 486, 2-{(3R)-4-[6-(4-fluorophenyl)-2-morpholin-4-ylpyrimidin-4-yl]-3-methylpiperazin-1-yl}nicotinonitrile]"
12,≥ 6.00,"C[C@@H]1CN(c2ncccc2Cl)CCN1c1cc(-c2ccc(F)cc2)nc(N2CCOCC2)n1 [Example 487, 4-[4-[(2R)-4-(3-chloropyridin-2-yl)-2-methylpiperazin-1-yl]-6-(4-fluorophenyl)pyrimidin-2-yl]morpholine]"
13,≥ 6.00,"C[C@@H]1CN(c2ncccc2Cl)CCN1c1cc(-c2cccc(F)c2)nc(N2CCOCC2)n1 [Example 488, 4-[4-[(2R)-4-(3-chloropyridin-2-yl)-2-methylpiperazin-1-yl]-6-(3-fluorophenyl)pyrimidin-2-yl]morpholine]"
14,≥ 6.00,"C[C@@H]1CN(c2ncccc2Cl)CCN1c1cc(-c2ccc3ccccc3c2)nc(N2CCOCC2)n1 [Example 492, 4-[4-[(2R)-4-(3-chloropyridin-2-yl)-2-methylpiperazin-1-yl]-6-(2-naphthyl)pyrimidin-2-yl]morpholine]"
15,≥ 6.00,"Cc1ccc(-c2cc(N3CCN(c4ncccc4C)C[C@H]3C)nc(N3CCOCC3)n2)cc1F [Example 494, 4-{4-(3-fluoro-4-methylphenyl)-6-[(2R)-2-methyl-4-(3-methylpyridin-2-yl)piperazin-1-yl]pyrimidin-2-yl}morpholine]"
